Tests used:
Schizochytrium = experiment: Forward versus side scatter flow cytometry for oxamate-induced cell death; assay type: cell-based; settings: at higher concentrations of oxamate, FIG. 3
Protocol: Schizochytrium or chlamydomonas were harvested, counted, and resuspended at 10^6 cells/100 μl of PBS containing 2.5% fetal calf serum in preparation for flow cytometric analysis. Lysosensor dyes were used to detect fatty acids in glyoxosomes or oil droplets. Mitochondrial membrane potential was assessed using Mitotracker Red (CM-H2XROS, BD Pharmingen). The cells were resuspended in PBS containing 2.5% fetal calf serum containing a final concentration of 0.5 micromolar Mitotracker dye. The cells were incubated at 37° for 20 minutes, washed twice in PBS containing 2.5% fetal calf serum and analyzed flow cytometrically. Data were acquired on a Coulter Excel flow cytometer (Coulter, Hialeah, Fla.) and analyzed with FloJo software. […] Each sample population was classified for cell size (forward scatter) and complexity (side scatter), gated on a population of interest and evaluated using 30,000 cells.
Percents: Gating is a tool provided by FloJo software and allows for the analysis of a certain population of cells. […] After the gates were drawn, a percent value of dead cells was calculated by taking the number of dead cells divided by the number of total cells and multiplying by one hundred.
The bar graph in FIG. 3 depicts the increase in geometric mean of fluorescence in the treated group minus the untreated. […]

cell wall UCP = settings: wild type strains of C. reinhardtii; prior studies, U.S. Pat. No. 7,105,718; cited from earlier work

NC(=O)C(=O)O [Oxamate, oxamate]
percentage of cell death (Schizochytrium): significantly increased percentage of cell death

CNc1cnn(-c2cccc(C(F)(F)F)c2)c(=O)c1Cl [norflurazon]
cell wall expression of UCP (cell wall UCP): did upregulate cell wall expression of UCP

— patent US8450090B2, “Compositions and methods for promoting fatty acid production in plants” (The Regents of the University of Colorado, a body corporate, priority 2009, dated 2013)
